Assay results taken from patent US20090118223A1, “Novel 2'-c-methyl and 4'c-methyl nucleoside derivatives” (priority 2005, published 2009).
Structures can show the parent of a compound that is named as a salt.

Columns and labels:
[1] = test system: HCV replication in human liver tissue; test: HCV-infected human liver slice assay (Example F); assay type: cell-based; details: for amount of HCV RNA released into the culture medium from 48-72 h: treatment of HCV-infected human liver slices for 72 h
Protocol: Inhibition of HCV replication in human liver tissue was evaluated using the following assay.
Liver from a brain-dead HCV antibody-positive human patient was perfused with ice-cold Viaspan (Dupont Pharmaceutical) preservation solution and received on ice in Viaspan.
Precision-cut liver slices of 200-250 μm thickness and […] diameter were prepared and cultured in Waymouth's cell culture medium (Gibco, Inc.) that was supplemented with 10% fetal bovine serum and 10 mL/L Fungi-Bact at 37° C., and gassed with carbogen (95% O2, 5% CO2) at 0.75 liters/min. Tissue slices were maintained in culture for 72 h. Cell culture medium containing test compound in solution was changed on a daily basis.
At appropriate times of liver slice incubation, liver slices and medium were collected for analysis of HCV RNA (tissue and medium) and nucleotide levels (NTP). All collected media and tissue slices were maintained in liquid N2 until analysis.
Medium and tissue samples were analyzed for HCV RNA levels according to published procedures (Bonacini et. al., 1999) which utilize an automated, multicycle, polymerase chain reaction (PCR)-based technique. This assay has a lower limit of detection for HCV RNA of 100 viral copies/ml.
Frozen liver slices were disrupted by using a combination of ultrasound probe sonication, Branson Sonifier 450 (Branson Ultrasonics, Danbury, Conn.) and homogenization using a Dounce conical pestle in 200 μls of 10% (v/v) perchloric acid (PCA). After a […] centrifugation at 2,500×g, the supernatants were neutralized using 3 M KOH/3 M KHCO3 and mixed thoroughly. The neutralized samples were centrifuged at 2,500 g for 5 min and NTP levels were determined by ion exchange phase HPLC (Hewlett Packard 1050) using a Whatman Partisil 5 SAX (5 μm, 4.6×250 mm) column. […] Nucleoside triphosphates were eluted from the column using a linear gradient to 80% 1 M ammonium phosphate pH 3.5/6% ethanol buffer, at a flow rate of 1.25 mL/min and detected by UV absorbance (254 nm).

[2] = Liver targeting of 2′-C-methylcytidine and its prodrugs in rats: liver NTP vs plasma nucleoside (Example K); assay type: in vivo; details: male Sprague-Dawley rats, intraperitoneal, 5 mg/kg nucleoside equivalents
Protocol: The liver specificity of the prodrug compounds 35.3, 35.4, and 35.5 was compared relative to the parent nucleoside, 2′-C-methylcytidine, by measuring the generation of NTP in the liver compared to nucleoside in the plasma.
Prodrug compounds 35.3, 35.4, 35.5, 38.3, 38.6, 40.1, 40.6, 40.7, 40.8, 41.2 or 2′-C-methylcytidine were administered intraperitoneally to male Sprague-Dawley rats at a dose of 5 mg/kg based on nucleoside equivalents (5 mg/kg 2′-C-methylcytidine and ˜7-10 mg/kg prodrug compounds). Plasma concentrations of 2′-C-methylcytidine and the liver concentrations of the 5′-triphosphate of 2′-C-methylcytidine were measured by LC-MS using the standard ion-pairing chromatography methods for nucleoside and triphospliate, respectively, as described in Example E. Conventional SAX HPLC-UV could not differentiate between endogenous CTP and 2′-C-methylcytidine triphosphate.

Work on `C[C@@]1(O)[C@H](O)[C@@H](COP2(=O)OCC[C@H](c3cccc(Cl)c3)O2)O[C@H]1n1ccc2c(=O)[nH]c(N)nc21` (stereo partly drawn) (as salt: trifluoroacetic acid salt) [Compound 17.10, 2-amino-7-(cis-5′-O-[4-(R)-(3-chlorophenyl)-2-oxo-1,3,2-dioxaphosphorinan-2-yl]-2′-C methyl-beta-D-ribofuranosyl)-7H-pyrrolo[2,3-d]pyrimidin-4(3H)-one trifluoroacetic acid salt] yielded a melting point of 170 to 180 °C.
With `C[C@@]1(O)[C@H](O)[C@@H](CO[P@]2(=O)OCC[C@H](c3cccc(Cl)c3)O2)O[C@H]1n1cnc2c(=O)[nH]c(N)nc21` (relative stereo) [Compound 19, cis-5′-O-[4-(3-Chlorophenyl)-2-oxo-1,3,2-dioxaphosphorinan-2-yl]-2′-C-methylguanosine] the “lowering viral RNA production in the culture medium, prodrug compared with nucleoside 2′-C-methylguanosine” value ([1]; HCV-infected human liver slices, 72 h) was “more effective” and the “amount of HCV RNA released into the culture medium from 48-72 h” value [1] was “decreased”.
In the case of `CC(C)[C@H](N)C(=O)O[C@@H]1[C@@H](CO[P@@]2(=O)OCC[C@@H](c3cccc(Cl)c3)O2)O[C@@H](n2ccc(N)nc2=O)[C@]1(C)O.O=C(O)C(F)(F)F` (relative stereo) [Compound 41.2, cis-5′-O-[4-(S)-(3-Chlorophenyl)-2-oxo-1,2,3-dioxaphosphorin-2-yl]-2′-C-methyl-3′-(L-valinyl)cytidine trifluoroacetic acid salt], the “Liver Targeting Index (Liver/Plasma)” value [2] was 302, the Cmax ([2]; 2′-C-methylcytidine) was 340 nM and the “Prodrug Improvement (Fold)” value ([2]; liver targeting over free nucleoside) was 4081 Fold.
For `C[C@@]1(O)[C@H](O)[C@@H](CO)O[C@H]1n1cnc2c(=O)[nH]c(N)nc21` [2′-C-methylguanosine, reference compound], the “amount of HCV RNA released into the culture medium from 48-72 h” value [1] was “decreased”.
`C[C@@]1(O)[C@H](O)[C@@H](COP2(=O)OCC[C@@H](c3ccncc3)O2)O[C@H]1n1ccc2c(=O)[nH]c(N)nc21` (stereo partly drawn) [Compound 17.13, 2-amino-7-(cis-5′-O-[4-(S)-(pyridin-4-yl)-2-oxo-1,3,2-dioxaphosphorinan-2-yl]-2′-C methyl-beta-D-ribofuranosyl)-7H-pyrrolo[2,3-d]pyrimidin-4(3H)-one] showed a melting point of 138 to 141 °C.
`C[C@@]1(O)[C@H](O)[C@@H](COP2(=O)OCC[C@H](c3ccccc3)O2)O[C@H]1n1ccc2c(=O)[nH]c(N)nc21` (stereo partly drawn) [Compound 17.16, 2-amino-7-(cis-5′-O-[4-(R)-phenyl-2-oxo-1,3,2-dioxaphosphorinan-2-yl]-2′-C methyl-beta-D-ribofuranosyl)-7H-pyrrolo[2,3-d]pyrimidin-4(3)-one] showed a melting point of 128 to 133 °C.
Work on `CC(=O)O[C@@H]1[C@@H](CO[P@@]2(=O)OCCC(c3ccncc3)O2)O[C@@H](n2ccc3c(N)ncnc32)[C@]1(C)O` (some centres unmarked) [Compound 22.1] yielded a melting point of 182 to 185 °C.
In the case of `CC(=O)O[C@@H]1[C@@H](CO[P@@]2(=O)OCC[C@@H](c3cccc(Cl)c3)O2)O[C@@H](n2ccc3c(N)ncnc32)[C@]1(C)O` [Compound 22.2, 4-amino-7-(3′-O-acetyl-cis-5′-O-[4-(S)-(3-chlorophenyl)-2-oxo-1,3,2-dioxaphosphorinan-2-yl]-2′-C-methyl-beta-D-ribofuranosyl)-7H-pyrrolo[2,3-d]pyrimidine], the melting point was 90 to 93 °C.
